Measured values from ChEMBL document CHEMBL1130021 (J Med Chem, 1997).
Where a name gives a salt, the structure may show the parent alone.

Legend:
MCF7 = assay: Inhibition of estrogen-induced proliferation in human MCF-7 breast cancer cells; assay type: functional, cell-based
Rattus norvegicus = assay: Percent reduction in total serum Cholesterol level at 1.0 mg/kg oral dose; assay type: functional

## O=C(c1ccc(OCCN2CCCCC2)cc1)c1c(-c2ccc(O)cc2)sc2cc(O)ccc12 [RALOXIFENE HYDROCHLORIDE]
MCF7
  IC50: 0.4 nM

## CC/C(=C(\c1ccccc1)c1ccc(OCCN(C)C)cc1)c1ccccc1 [TAMOXIFEN]
MCF7
  IC50: 481 nM

## Oc1ccc(-c2sc3cc(O)ccc3c2Cc2ccc(OCCN3CCCCC3)cc2)cc1
MCF7
  IC50: 0.19 nM

## Oc1ccc(-c2sc3cc(O)ccc3c2Nc2ccc(OCCN3CCCCC3)cc2)cc1
MCF7
  IC50: 0.1 nM

## C[C@]12CC[C@@H]3c4ccc(O)cc4C[C@@H](CCCCCCCCC[S+]([O-])CCCC(F)(F)C(F)(F)F)[C@H]3[C@@H]1CC[C@@H]2O (stereo partly drawn) [FULVESTRANT]
MCF7
  IC50: 0.49 nM

## Cl.Oc1ccc(-c2sc3cc(O)ccc3c2Oc2ccc(OCCN3CCCCC3)cc2)cc1
Rattus norvegicus
  Reduction: 45%
MCF7
  IC50: 0.05 nM

## Oc1ccc(-c2sc3cc(O)ccc3c2Sc2ccc(OCCN3CCCCC3)cc2)cc1
MCF7
  IC50: 0.28 nM
